System: C. albicans
Experiment: Kirby–Bauer disk diffusion assay on IL-containing YPD plates
Format: cell-based
Description: Assessment of fungal growth on YPD plates with AFs + ILs served as an indicator for the combined efficacy of treatment of ILs and AFs. YPD agar plates were made with addition of increasing concentrations of [HMIM]Cl at 0, 2.5, 6.25, and 25 mM or [OMIM]Cl at 0, 0.25, 0.625, and 2.5 mM. Plates solidified and dried on bench for 24 h before use. IN total, 400 μL of S. cerevisiae or C. albicans liquid culture at mid-log phase OD600 0.5 was spread using sterile glass beads to achieve even distribution. Following addition of culture, the plates were allowed to dry for 30 min before the addition of antifungal disks. Antifungal-infused disks were prepared using the stock solutions of solubilized antibiotics; 15 μL of each of the 4 azole antifungals at stock concentrations was pipetted onto a sterile 6 mm cellulose disk (BD). […] After plate drying was complete, sterile forceps were used to transfer the disks to the media, and the plate was grown upright in an incubator overnight at 30 °C. The following day, photographs were taken of the plates to visualize the zone of inhibition (ZOI) created by the combined treatment. Adobe Illustrator 2023 CC was used to perform digital measurements of ZOI diameters.
To assess the potential for combinatorial effects of ILs and AFs in yeast, Kirby–Bauer disk diffusion assays were performed for C. albicans and S. cerevisiae for [HMIM]Cl and [OMIM]Cl with all four AFs. […] The addition of 6 mm cellulose disks infused with equal volumes of solubilized AFs to the plates occurred after plating of C. albicans or S. cerevisiae, allowing for growth for 48 h at 23 °C, at which point the plates were evaluated for the establishment of zones of inhibition (ZOI). Digital pictures were acquired of all plates, and measurements of ZOI diameter were performed digitally as described in the Methods. […] With progressively increasing amounts of both [HMIM]Cl and [OMIM]Cl, ZOIs increased for all Afs, including Fluconazole and Itraconazole, which appear to be ineffective without IL in the Kirby–Bauer disk assay. Experiments were performed in triplicate and ZOIs were measured for all plates.

## Clc1ccccc1C(c1ccccc1)(c1ccccc1)n1ccnc1 [Clotrimazole]
[HMIM]Cl 0 mM in plate
  Zone of inhibition (ZOI) diameter: 10 mm
[HMIM]Cl 2.5 mM in plate
  Zone of inhibition (ZOI) diameter: 10.33 mm
[HMIM]Cl 6.25 mM in plate
  Zone of inhibition (ZOI) diameter: 25.67 mm
[HMIM]Cl 25 mM in plate
  Zone of inhibition (ZOI) diameter: 30.67 mm
[OMIM]Cl 0 M in plate
  Zone of inhibition (ZOI) diameter: 10 mm
[OMIM]Cl 0.25 mM in plate
  Zone of inhibition (ZOI) diameter: 11 mm
[OMIM]Cl 0.625 mM in plate
  Zone of inhibition (ZOI) diameter: 23.33 mm
[OMIM]Cl 2.5 mM in plate
  Zone of inhibition (ZOI) diameter: 44.67 mm
Absence of added IL
  inhibition of C. albicans growth around disk: minimal inhibition

From article PMC12730265, “Combinatorial Antimicrobial Effects of Imidazolium-Based Ionic Liquids and Antifungals on Model Fungal Organisms” (Biomolecules, 2025)
